The results in this text go back to PMC5674494, “Use of Cyclic Backbone NGR-Based SPECT to Increase Efficacy of Postmyocardial Infarction Angiogenesis Imaging” (Contrast Media & Molecular Imaging, 2017).

A short description of one data set: in vitro. The format is in vitro ADME. The note with it: human, whole blood. The protocol: ^111[…], or ^111In-co(NGR)4 was added to […] human blood in heparin (BD Biosciences, […], The Netherlands). Blood stability was tested at 0, 10, 30, and 50 min. For each time point imaging agents were separated from blood cells and proteins by adding 0.5 mL MeCN (VWR International BV, Breda, The Netherlands) to 0.5 mL blood sample followed by centrifugation (2,000 ×g, 3 min). Supernatant samples were analyzed by HPLC using the above-mentioned method.

Data set [1] in a line: Octanol/water partition coefficient (logP). The format is physicochemical. As to conditions: 111In-labeled tracer, separate experiment 2 of 3, N = 3, method as ref 22. The procedure:
The logP value of each compound was determined in three separate experiments as described previously.

The target of a further data set is T1, CD13 (Mus musculus, UniProt P97449).
T1 construct: the level of CD13 expression was markedly higher in the infarcted myocardium of MI animals; from tissue; host or cells: heart (myocardium) of living Swiss mice, 7 days after MI
T1 sequence (P97449 1-966): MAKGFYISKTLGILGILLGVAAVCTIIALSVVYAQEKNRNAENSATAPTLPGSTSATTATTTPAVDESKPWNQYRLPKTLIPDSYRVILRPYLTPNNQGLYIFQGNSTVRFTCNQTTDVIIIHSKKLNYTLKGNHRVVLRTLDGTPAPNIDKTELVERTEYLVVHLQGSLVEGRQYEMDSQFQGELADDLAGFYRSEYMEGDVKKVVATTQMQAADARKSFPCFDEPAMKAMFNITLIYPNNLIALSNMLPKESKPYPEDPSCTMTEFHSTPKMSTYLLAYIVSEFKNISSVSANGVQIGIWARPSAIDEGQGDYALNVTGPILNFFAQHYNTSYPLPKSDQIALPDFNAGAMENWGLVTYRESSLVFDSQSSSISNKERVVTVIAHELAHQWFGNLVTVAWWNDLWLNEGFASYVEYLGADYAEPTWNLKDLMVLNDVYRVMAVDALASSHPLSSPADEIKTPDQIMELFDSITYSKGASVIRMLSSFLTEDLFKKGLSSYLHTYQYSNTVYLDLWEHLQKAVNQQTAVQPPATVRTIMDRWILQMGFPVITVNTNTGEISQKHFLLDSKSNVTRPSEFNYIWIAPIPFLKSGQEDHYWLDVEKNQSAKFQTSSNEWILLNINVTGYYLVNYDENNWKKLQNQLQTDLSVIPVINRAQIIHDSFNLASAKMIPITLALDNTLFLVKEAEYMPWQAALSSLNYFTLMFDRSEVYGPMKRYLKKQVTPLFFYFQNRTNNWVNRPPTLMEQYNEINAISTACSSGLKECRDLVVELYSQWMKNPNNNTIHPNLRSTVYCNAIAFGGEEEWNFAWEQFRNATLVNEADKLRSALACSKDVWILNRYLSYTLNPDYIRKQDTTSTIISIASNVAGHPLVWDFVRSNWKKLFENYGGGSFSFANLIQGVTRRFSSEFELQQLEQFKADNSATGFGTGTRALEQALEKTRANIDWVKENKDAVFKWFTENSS
The data set can be described thus: Dual-isotope micro-SPECT, SUV of 111In-labeled NGR tracers in heart segments of MI mice. The format is in vivo, Swiss mice. The note with it: MI mice 7 days after LAD ligation, mean ± SEM. The procedure:
(§1) In 10–12-week-old male Swiss mice, we induced MI by ligation of the left anterior descending coronary artery (LAD) as described before to test coNGR (n = 5) or co(NGR)4 (n = 8). A group of sham-operated Swiss mice (n = 5) was used as control. SPECT imaging was performed 7 days after MI or sham surgery. All animals were held under the guidelines of the animal care facility (Maastricht University). All animal experiments were approved by the Committee for Animal Welfare of Maastricht University.
Mice were anesthetized with isoflurane (induction 2.5%; maintenance 1.5%), a catheter was placed in a tail vein, and animals were positioned in the SPECT camera (MILabs, Utrecht, The Netherlands). Prior to image acquisition, a bolus injection of ^99mTc-sestamibi and ^111In-coNGR or ^111In-co(NGR)4 was given intravenously (i.v.) in a maximum volume of 200 µL. Table S1 in Supplementary Material available online at https://doi.org/10.1155/2017/8638549 provides an overview of the average injected dose. Immediately after injection, 4 consecutive time frames of 15 min each were acquired. For image quantification we used the last of these frames.
Acquired list mode data was reconstructed using MILabs reconstruction software (version 2.51) employing the POS-EM algorithm (6 iterations and 16 subsets, reconstructed at a voxel size of 0.4 mm). ^99mTc and ^111In images were reconstructed by selecting photo peak and background energy levels as described before.
To allow quantification of imaging agent uptake, in vivo isotope-specific conversion factors (CF) were determined for the 0.6 mm collimator in a representative phantom with a known activity. Using the previously described method the following conversion factors (CF), CF99mTc 612 MBq/mL and CF111In 643 MBq/mL, were found.
PMOD 3.7 cardiac tool PCARD (PMOD technologies, Zürich, Switzerland) was used to segment the heart in the 17-segment model. Uptake per segment was subsequently expressed as a mean standardized uptake value (SUVmean), also using the previously described method. For body weight, we assumed that 1 g equalled 1 mL.

Details of data set [2]: species or system Swiss mice. The note with it: mouse, in vivo. The procedure: as §1, with “University. After imaging, the vital organs were harvested and kept for gamma-counting (Wallac Wizard, Turku, Finland). Acquired data were expressed as percentage injected dose per gram tissue (% ID/g).” for “University.”
[3] abbreviates: 111In tracer i.v., last of 4 15-min SPECT frames, SUVmean, 17-segment model, n = 5 coNGR, n = 8 co(NGR)4.
Setting [4] is: 111In-labeled tracer i.v., last of 4 consecutive 15 min SPECT frames.

SMILES strings stand for the structures.

The term share remaining denotes what is left of the initial amount, in per cent. Lower therefore signals more turnover. For `N=C(N)NCCC[C@@H]1NC(=O)CNC(=O)[C@H](CC(N)=O)NC(=O)[C@H](CSC2CC(=O)N(CC3CCC(C(=O)NCCCC[C@H](NC(=O)C4CCC(CN5C(=O)CC(SC[C@@H]6NC(=O)CNC(=O)[C@H](CCCNC(=N)N)NC(=O)CNC(=O)[C@H](CC(N)=O)NC6=O)C5=O)CC4)C(=O)NCCCC[C@H](NC(=O)[C@H](CCCCNC(=O)C4CCC(CN5C(=O)CC(SC[C@@H]6NC(=O)CNC(=O)[C@H](CCCNC(=N)N)NC(=O)CNC(=O)[C@H](CC(N)=O)NC6=O)C5=O)CC4)NC(=O)C4CCC(CN5C(=O)CC(SC[C@@H]6NC(=O)CNC(=O)[C@H](CCCNC(=N)N)NC(=O)CNC(=O)[C@H](CC(N)=O)NC6=O)C5=O)CC4)C(=O)N[C@@H](CCCCNC(=O)[C@@H](N)CSC4CC(=O)N(CC5CCC(C(=O)NCCCCC(C(=O)O)N(CCN(CC(=O)O)CC(=O)O)CCN(CC(=O)O)CC(=O)O)CC5)C4=O)C(N)=O)CC3)C2=O)NC(=O)CNC1=O` (some centres unmarked) [co(NGR)4], the fraction remaining at 50 min in the data set “in vitro” is 25.3%. In addition, the logP2 in data set [1] is listed as −3.64 ± 0.03. Besides, at CD13 (setting [3]), the “SUV of NGR imaging agent, segment 1. Basal anterior” value was 0.37 ± 0.06; the “SUV of NGR imaging agent, segment 2. Basal anteroseptal” value stood at 0.37 ± 0.05; the “SUV of NGR imaging agent, segment 3. Basal inferoseptal” value stood at 0.40 ± 0.05; the “SUV of NGR imaging agent, segment 4. Basal inferior” value amounted to 0.41 ± 0.06. At CD13 (setting [3]), the “SUV of NGR imaging agent, segment 5. Basal inferolateral” value is reported as 0.46 ± 0.07; the “SUV of NGR imaging agent, segment 6. Basal anterolateral” value came to 0.40 ± 0.07; the “SUV of NGR imaging agent, segment 7. Mid anterior” value is listed as 0.32 ± 0.04; the “SUV of NGR imaging agent, segment 8. Mid anteroseptal” value is 0.36 ± 0.03. Also, on CD13 (setting [3]), the “SUV of NGR imaging agent, segment 9. Mid inferoseptal” value was determined as 0.59 ± 0.06; the “SUV of NGR imaging agent, segment 10. Mid inferior” value amounted to 0.56 ± 0.08; the “SUV of NGR imaging agent, segment 11. Mid inferolateral” value was determined as 0.44 ± 0.07; the “SUV of NGR imaging agent, segment 12. Mid anterolateral” value is 0.40 ± 0.05. Moreover, on CD13 (setting [3]), the “SUV of NGR imaging agent, segment 13. Apical anterior” value was determined as 0.54 ± 0.07; the “SUV of NGR imaging agent, segment 14. Apical septal” value is 0.80 ± 0.09; the “SUV of NGR imaging agent, segment 15. Apical inferior” value worked out at 0.82 ± 0.08; the “SUV of NGR imaging agent, segment 16. Apical lateral” value is recorded as 0.54 ± 0.06. Besides, the “SUV of NGR imaging agent, segment 17. Apex” value at CD13 (setting [3]) was determined as 0.76 ± 0.10. Also, at CD13 (setting [4]), the “SUV in segments affected by MI” value came to 0.57 ± 0.03 and the “SUV in segments not affected by MI” value came to 0.43 ± 0.02. Further, in data set [2], the kidney uptake entry is listed as “Substantial kidney uptake”. In data set [2] (iv), this compound yielded a urinary excretion of 54.9 ± 9.1 % ID/g.
